Results reported in patent US20150352114A1, “MITOTIC KINESIN Eg5 INHIBITING ANTICANCER AGENTS” (THE CLEVELAND CLINIC FOUNDATION, priority 2014, published 2015).

Assays:
Type in all cases: cell-based, human
08-387 GSCs [1] = test: Transwell in vitro invasion assay
Description: 08-387 GSCs enriched in G1 (8 hours post final thymidine release) were pre-exposed to vehicle or ispinesib (200 to 0 nM at a two-fold dilution) for one hour prior to being seeded onto Matrigel coated FluoroBlok Cell Culture Inserts at 125,000 cells per insert (±vehicle or ispinesib, plated in triplicate) with Neurobasal media supplemented with 10% FBS in the lower reservoir (BD Falcon, Franklin Lakes, N.J.). After 8 hours, membranes were processed for analysis with nuclei stained with DAPI. Nuclei on the lower surface of the membrane within the central field were scored using the 20× objective on a Leica DMIRB inverted microscopes.

08-387 GSCs [2] = test: Nascent process analysis; details: 200 nM; 6-hour time course; p<0.0001
Description: 08-387 GSCs enriched in interphase were seeded at 6,000 cells per well of a 6 well plate and allowed to adhere for 1 hour. Cells were then exposed to vehicle or 200 nM ispinesib and images recorded over a 6-hour period using the IncuCyte ZOOM (Essen Biosciences, Ann Arbor, Mich.). Process formation was measured using CellPlayer NeuroTrack Software Module (Essen Biosciences).

[3] = tested on: pCRMP2 (T514) in interphase GSCs; test: CRMP2 phosphorylation immunoblot; details: 200 nM; 6-hour time course; GSCs
Description: FIGS. 8(A-B) illustrate that Eg5 impacts microtubule growth through the CRMP-tubulin deposition pathway; (A) 08-387 GSCs enriched in interphase were exposed to vehicle (DMSO) or ispinesib (200 nM) and harvested for whole cell lysates every two hours over a 6 hour time course. Resulting lysates were probed for CRMP2 and pCRMP2 (T514); (B) Human brain microvascular endothelial cells (HuBrMVECs) were treated with vehicle (DMSO) or ispinesib (200 nM) and harvested for whole cell lysates every three hours over a 6 hour time course. Resulting lysates were probed for CRMP2 and pCRMP2 (T514); For all immunoblots, βactin served as a loading control. Molecular weight (MW) of resulting bands is given in kilodaltons (kD).
Protein extracts were made using a 50 mM Tris pH 8.0, […] NaCl, 0.5% NP-40 lysis solution. Resulting lysates were ran on 10% SDS-PAGE gels and transferred to Immobilon-FL PVDF (Millipore Corp., Billerica, Mass.). The membranes were blocked with 5% (wt/vol) bovine serum albumin in PBS-Tween-20 (0.2% vol/vol) and probed with primary antibodies against Eg5 (mouse, 1:4000, BD Biosciences, San Jose, Calif.), Olig2 (rabbit, 1:1000, abcam, San Francisco, Calif.), GFAP (DAKO; 1:10,000, Carpinteria, Calif.), CRMP2 (mouse, 1:1000, abgent, San Diego, Calif.), pCRMP2(T514) (rabbit, 1:1000, Cell Signaling, Beverly, Mass.), or β-actin (mouse, 1:8000, Sigma-Aldrich, St. Louis, Mo.) as a loading control. Secondary antibodies (LI-COR) were incubated in TBST+0.02% SDS and visualized with the LI-COR Odyssey near infrared imaging system (Lincoln, NB).

GSCs = test: Limiting dilution assay and sphere formation (self-renewal); details: pretreatment 18 hours with 3 nM; scored ten days later
Description: GSCs were isolated from subcutaneous flank xenografts of patient-derived specimens by magnetic sorting as described above and allowed to recover overnight. The next day cells were exposed to vehicle or 3 nM ispinesib for 18 hours. Cells were then washed and triturated into a single cell suspension. Cell sorting was performed using a FACS Aria II Cell Sorter (BD Biosciences, Franklin Lakes, N.J., USA) to plate the cells into 96 well plates at a final cell number per well of 1 (38 wells/plate), 5 (24 wells/plate), 10, 20, or 50 (all at 12 wells/plate). Tumorsphere formation was evaluated 10 days after sorting and wells were scored positive or negative for the presence of at least one tumorsphere. The estimated stem cell frequency was calculated using extreme limiting dilution analysis. Only live cells were selected for using Live/Dead dye blue (Life Technologies).

For `Cc1ccc(C(=O)N(CCCN)[C@@H](c2nc3cc(Cl)ccc3c(=O)n2Cc2ccccc2)C(C)C)cc1` [ispinesib, N-(3-amino-propyl)-n-[R-1-(3-benzyl-7-choloro-4-oxo-3,4-dihydroquinazolin-2-yl)-2-methyl-propyl]-4-methyl-benzamide methanesulfonate], the “fewer cells migrated per field compared to vehicle control” value (08-387 GSCs [1]; 200 nM) was “approximately 6 fold”, the EC50 (08-387 GSCs [1]; Homo sapiens, 8 h, read-out: EC50, Transwell migration) was 67.2 nM and the Transwell migration (08-387 GSCs [1]; interphase-enriched cells, 8 hours) was “completely block”. The “process length in GSCs” value (08-387 GSCs [2]) was “appreciably attenuated”, the “phospho-CRMP2 (T514)” value [3] was “significant increase” and the “stem cell frequency (tumorsphere formation)” value (GSCs) was “significantly compromised”.
